According to the NIST ThermoML archive (doi:10.1016/j.jct.2016.03.026):

Assay: xn = mol fraction of the nth substance listed
Conditions: 313.15 K, Fluid (supercritical or subcritical phases), x1 = 0.97; for mass density: Vibrating tube method; for speed of sound: Frequency=5 MHz, Pulse-echo method

O=C=O [carbon dioxide] + CO
Conditions | mass density [kg/m3] | speed of sound [m/s]
17250 kPa | 821 | –
17275 kPa | 821.23 | –
17300 kPa | 821.48 | –
17325 kPa | 821.73 | –
17350 kPa | 821.98 | –
17375 kPa | 822.18 | –
17400 kPa | 822.42 | –
17425 kPa | 822.65 | –
17450 kPa | 822.87 | –
17475 kPa | 823.11 | –
17500 kPa | 823.28 | –
17525 kPa | 823.52 | –
17550 kPa | 823.71 | –
17575 kPa | 823.99 | –
17600 kPa | 824.21 | –
17625 kPa | 824.46 | –
17650 kPa | 824.71 | –
17675 kPa | 824.95 | –
17700 kPa | 825.17 | –
17725 kPa | 825.45 | –
17750 kPa | 825.67 | –
17775 kPa | 825.94 | –
17800 kPa | 826.17 | –
17825 kPa | 826.41 | –
17850 kPa | 826.64 | –
17875 kPa | 826.87 | –
17900 kPa | 827.14 | –
17925 kPa | 827.38 | –
17950 kPa | 827.61 | –
17975 kPa | 827.85 | –
18000 kPa | 828.1 | –
18025 kPa | 828.35 | –
18050 kPa | 828.6 | –
18075 kPa | 828.84 | –
18100 kPa | 829.11 | –
18125 kPa | 829.36 | –
18150 kPa | 829.59 | –
18175 kPa | 829.87 | –
18200 kPa | 830.13 | –
18225 kPa | 830.35 | –
18250 kPa | 830.62 | –
18275 kPa | 830.86 | –
18300 kPa | 831.12 | –
18325 kPa | 831.37 | –
18350 kPa | 831.62 | –
18375 kPa | 831.85 | –
18400 kPa | 832.11 | –
18425 kPa | 832.31 | –
18450 kPa | 832.53 | –
18475 kPa | 832.8 | –
18500 kPa | 833.03 | –
18525 kPa | 833.28 | –
18550 kPa | 833.5 | –
18575 kPa | 833.75 | –
18600 kPa | 833.97 | –
18625 kPa | 834.2 | –
18650 kPa | 834.43 | –
18675 kPa | 834.69 | –
18700 kPa | 834.94 | –
18725 kPa | 835.15 | –
18750 kPa | 835.38 | –
18775 kPa | 835.62 | –
18800 kPa | 835.84 | –
18825 kPa | 836.06 | –
18850 kPa | 836.28 | –
18875 kPa | 836.55 | –
18900 kPa | 836.78 | –
18925 kPa | 837.02 | –
18950 kPa | 837.22 | –
18975 kPa | 837.47 | –
19000 kPa | 837.72 | –
19025 kPa | 837.93 | –
19050 kPa | 838.15 | –
19075 kPa | 838.38 | –
19100 kPa | 838.61 | –
19125 kPa | 838.87 | –
19150 kPa | 839.12 | –
19175 kPa | 839.32 | –
19200 kPa | 839.61 | –
19225 kPa | 839.82 | –
19250 kPa | 840.03 | –
19275 kPa | 840.27 | –
19300 kPa | 840.49 | –
19325 kPa | 840.71 | –
19350 kPa | 840.94 | –
19375 kPa | 841.18 | –
19400 kPa | 841.4 | –
19425 kPa | 841.61 | –
19450 kPa | 841.84 | –
19475 kPa | 842.08 | –
19500 kPa | 842.31 | –
19525 kPa | 842.53 | –
19550 kPa | 842.75 | –
19575 kPa | 842.96 | –
19600 kPa | 843.19 | –
19625 kPa | 843.37 | –
19650 kPa | 843.59 | –
19675 kPa | 843.84 | –
19700 kPa | 844.02 | –
19725 kPa | 844.25 | –
19750 kPa | 844.43 | –
19775 kPa | 844.64 | –
19800 kPa | 844.89 | –
19825 kPa | 845.06 | –
19850 kPa | 845.27 | –
19875 kPa | 845.47 | –
19900 kPa | 845.69 | –
19925 kPa | 845.91 | –
19950 kPa | 846.1 | –
19975 kPa | 846.29 | –
20000 kPa | 846.53 | –
31890 kPa | – | 648.6
34940 kPa | – | 674.9
39990 kPa | – | 714.5
44940 kPa | – | 749.7
49940 kPa | – | 782
54960 kPa | – | 812.2
60140 kPa | – | 841.3
65170 kPa | – | 867.7
70010 kPa | – | 891.8
75170 kPa | – | 916.2
80060 kPa | – | 938.2
